Measured values taken from ChEMBL document CHEMBL1126024, “Di- and triester prodrugs of the varicella-zoster antiviral agent 6-methoxypurine arabinoside” (J Med Chem, 1992).
Values after ≈ are worked out from the molar mass of the structure shown.

What was measured:
[1] = Solubility (phosphate buffered saline); type: physicochemical; conditions: read-out: S
Rattus norvegicus [2] = organism: Rattus norvegicus; assay: (§1) Ester prodrugs: recovery of parent compound in rat urine; type: ADME, organism-based; conditions: in vivo
[3] = Ester prodrugs: stability in buffer (pH 7); type: physicochemical
Rattus norvegicus [4] = organism: Rattus norvegicus; assay: as §1; type: ADME, organism-based; conditions: in vivo; remark: listed apart in the source

Compound | solubility [1] | Urinary recovery (Rattus norvegicus [2]) | T1/2 [3] | Urinary recovery (Rattus norvegicus [4])
COc1ncnc2c1ncn2[C@@H]1O[C@H](COC(=O)C(C)C)[C@@H](OC(=O)C(C)C)[C@@H]1O | 428 µM (≈ 181 µg/mL) | 17.7% | 19.5 days | –
CCCCC(=O)OC[C@H]1O[C@@H](n2cnc3c(OC)ncnc32)[C@@H](O)[C@@H]1OC(=O)CCCC | 78 µM (≈ 35.1 µg/mL) | 12.8% | – | –
CCC(=O)OC[C@H]1O[C@@H](n2cnc3c(OC)ncnc32)[C@@H](O)[C@@H]1OC(=O)CC | 2390 µM (≈ 943 µg/mL) | 11% | 30.2 days | –
COc1ccc(C(=O)OC[C@H]2O[C@@H](n3cnc4c(OC)ncnc43)[C@@H](OC(=O)c3ccc(OC)cc3)[C@@H]2OC(=O)c2ccc(OC)cc2)cc1 | < 5 µM | 4.1% | – | –
COc1ncnc2c1ncn2[C@@H]1O[C@H](COC(=O)Cc2ccccc2)[C@@H](OC(=O)Cc2ccccc2)[C@@H]1O | < 5 µM | 1.5% | – | –
CCCCC(=O)OC[C@H]1O[C@@H](n2cnc3c(OC)ncnc32)[C@@H](OC(=O)CCCC)[C@@H]1OC(=O)CCCC | 21 µM (≈ 11.2 µg/mL) | 2.2% | – | –
CCC(=O)O[C@H]1[C@H](OC(=O)CC)[C@@H](CO)O[C@H]1n1cnc2c(OC)ncnc21 | 23500 µM (≈ 9270 µg/mL) | 8.7% | 525 days | –
COc1ncnc2c1ncn2[C@@H]1O[C@H](COC(=O)C(C)(C)C)[C@@H](O)[C@@H]1OC(=O)C(C)(C)C | 1350 µM (≈ 608 µg/mL) | 15.7% | 178 days | –
CCCC(=O)O[C@H]1[C@H](OC(=O)CCC)[C@@H](CO)O[C@H]1n1cnc2c(OC)ncnc21 | 9600 µM (≈ 4060 µg/mL) | 4.8% | 13.1 days | –
COc1ncnc2c1ncn2[C@@H]1O[C@H](CO)[C@@H](OC(=O)c2ccc(C)cc2)[C@@H]1OC(=O)c1ccc(C)cc1 | 5 µM (≈ 2.59 µg/mL) | 0.2% | – | –
COc1ncnc2c1ncn2[C@@H]1O[C@H](CO)[C@@H](OC(=O)C(C)(C)C)[C@@H]1OC(=O)C(C)(C)C | 640 µM (≈ 288 µg/mL) | 1.6% | 72.7 days | –
COc1ccc(C(=O)OC[C@H]2O[C@@H](n3cnc4c(OC)ncnc43)[C@@H](OC(=O)c3ccc(OC)cc3)[C@@H]2O)cc1 | 6 µM (≈ 3.3 µg/mL) | 0.2% | – | –
COc1ncnc2c1ncn2[C@@H]1O[C@H](COC(=O)C(C)(C)C)[C@@H](OC(=O)C(C)(C)C)[C@@H]1OC(=O)C(C)(C)C | 14 µM (≈ 7.48 µg/mL) | 5.4% | – | –
COc1ncnc2c1ncn2[C@@H]1O[C@H](COC(=O)C(C)(C)C)[C@@H](OC(=O)C(C)(C)C)[C@@H]1O | 32 µM (≈ 14.4 µg/mL) | 1.2% | – | –
CCCCCCCC(=O)O[C@H]1[C@H](OC(=O)CCCCCCC)[C@@H](CO)O[C@H]1n1cnc2c(OC)ncnc21 | 36 µM (≈ 19.2 µg/mL) | 12.6% | – | –
CCCCC(=O)OC[C@H]1O[C@@H](n2cnc3c(OC)ncnc32)[C@@H](OC(=O)CCCC)[C@@H]1O | 1300 µM (≈ 586 µg/mL) | 15.3% | 51.6 days | –
COc1ncnc2c1ncn2[C@@H]1O[C@H](CO)[C@@H](OC(=O)C(C)C)[C@@H]1OC(=O)C(C)C | 3300 µM (≈ 1390 µg/mL) | 2.3% | 28.9 days | –
COc1ncnc2c1ncn2[C@@H]1O[C@H](COC(=O)C(C)C)[C@@H](O)[C@@H]1OC(=O)C(C)C | 9110 µM (≈ 3850 µg/mL) | 4.2% | 53.6 days | –
COc1ncnc2c1ncn2[C@@H]1O[C@H](CO)[C@@H](O)[C@@H]1O | 49800 µM (≈ 14100 µg/mL) | 3.8% | – | 25.9%
COc1ncnc2c1ncn2[C@@H]1O[C@H](CO)[C@@H](OC(C)=O)[C@@H]1OC(C)=O | 172000 µM (≈ 63000 µg/mL) | 19.2% | 19.1 days | –
COc1ncnc2c1ncn2[C@@H]1O[C@H](COC(C)=O)[C@@H](O)[C@@H]1OC(C)=O | 7100 µM (≈ 2600 µg/mL) | 10.6% | 22.5 days | –
COc1ncnc2c1ncn2[C@@H]1O[C@H](COS(=O)(=O)c2ccc(C)cc2)[C@@H](OS(=O)(=O)c2ccc(C)cc2)[C@@H]1OS(=O)(=O)c1ccc(C)cc1 | 5 µM (≈ 3.72 µg/mL) | 3% | – | –
COc1ncnc2c1ncn2[C@@H]1O[C@H](CO)[C@@H](OC(=O)c2ccccc2)[C@@H]1OC(=O)c1ccccc1 | 13 µM (≈ 6.38 µg/mL) | 0.1% | – | –

Compound | solubility [1] | Urinary recovery (Rattus norvegicus [2]) | T1/2 [3] | Urinary recovery (Rattus norvegicus [4])
COc1ncnc2c1ncn2[C@@H]1O[C@H](COC(=O)COc2ccccc2)[C@@H](OC(=O)COc2ccccc2)[C@@H]1OC(=O)COc1ccccc1 | 22 µM (≈ 15.1 µg/mL) | 4.6% | – | –
CCCCCCC(=O)O[C@H]1[C@H](OC(=O)CCCCCC)[C@@H](CO)O[C@H]1n1cnc2c(OC)ncnc21 | 30 µM (≈ 15.2 µg/mL) | 10.5% | – | –
COc1ccc(C(=O)O[C@H]2[C@H](OC(=O)c3ccc(OC)cc3)[C@@H](CO)O[C@H]2n2cnc3c(OC)ncnc32)cc1 | 5 µM (≈ 2.75 µg/mL) | 0.2% | – | –
COc1ncnc2c1ncn2[C@@H]1O[C@H](COC(=O)c2ccc(C)cc2)[C@@H](OC(=O)c2ccc(C)cc2)[C@@H]1OC(=O)c1ccc(C)cc1 | < 5 µM | 5.6% | – | –
COc1ncnc2c1ncn2[C@@H]1O[C@H](COC(=O)c2ccccc2)[C@@H](OC(=O)c2ccccc2)[C@@H]1OC(=O)c1ccccc1 | 8 µM (≈ 4.76 µg/mL) | 0.9% | – | –
COc1ncnc2c1ncn2[C@@H]1O[C@H](COS(C)(=O)=O)[C@@H](OS(C)(=O)=O)[C@@H]1OS(C)(=O)=O | 3220 µM (≈ 1660 µg/mL) | 4.4% | > 70 days | –
COc1ncnc2c1ncn2[C@@H]1O[C@H](CO)[C@@H](OC(=O)COc2ccccc2)[C@@H]1OC(=O)COc1ccccc1 | 67 µM (≈ 36.9 µg/mL) | 7.6% | – | –
COc1ncnc2c1ncn2[C@@H]1O[C@H](COC(=O)c2ccccc2)[C@@H](O)[C@@H]1OC(=O)c1ccccc1 | < 5 µM | 5.8% | – | –
COc1ncnc2c1ncn2[C@@H]1O[C@H](COC(C)=O)[C@@H](OC(C)=O)[C@@H]1O | 12300 µM (≈ 4510 µg/mL) | 16.3% | 30.6 days | –
COc1ncnc2c1ncn2[C@@H]1O[C@H](COC(=O)Cc2ccccc2)[C@@H](OC(=O)Cc2ccccc2)[C@@H]1OC(=O)Cc1ccccc1 | < 5 µM | 4.1% | – | –
CCCCCC(=O)O[C@H]1[C@H](OC(=O)CCCCC)[C@@H](CO)O[C@H]1n1cnc2c(OC)ncnc21 | 140 µM (≈ 67 µg/mL) | 4.8% | – | –
COc1ncnc2c1ncn2[C@@H]1O[C@H](COC(=O)COc2ccccc2)[C@@H](OC(=O)COc2ccccc2)[C@@H]1O | 58 µM (≈ 31.9 µg/mL) | 3.8% | – | –
COc1ncnc2c1ncn2[C@@H]1O[C@H](COC(C)=O)[C@@H](OC(C)=O)[C@@H]1OC(C)=O | 81800 µM (≈ 33400 µg/mL) | 8.3% | 15.2 days | –
COc1ncnc2c1ncn2[C@@H]1O[C@H](CO)[C@@H](OC(=O)Cc2ccccc2)[C@@H]1OC(=O)Cc1ccccc1 | 204 µM (≈ 106 µg/mL) | 2.7% | – | –
CCCC(=O)OC[C@H]1O[C@@H](n2cnc3c(OC)ncnc32)[C@@H](O)[C@@H]1OC(=O)CCC | 422 µM (≈ 178 µg/mL) | 11.8% | – | –
COc1ncnc2c1ncn2[C@@H]1O[C@H](COC(=O)C(C)C)[C@@H](OC(=O)C(C)C)[C@@H]1OC(=O)C(C)C | 141 µM (≈ 69.4 µg/mL) | 2.1% | – | –
CCC(=O)OC[C@H]1O[C@@H](n2cnc3c(OC)ncnc32)[C@@H](OC(=O)CC)[C@@H]1OC(=O)CC | 3550 µM (≈ 1600 µg/mL) | 0.8% | 127 days | –
CCCC(=O)OC[C@H]1O[C@@H](n2cnc3c(OC)ncnc32)[C@@H](OC(=O)CCC)[C@@H]1OC(=O)CCC | 102 µM (≈ 50.2 µg/mL) | 0.7% | – | –
COc1ncnc2c1ncn2[C@@H]1O[C@H](COC(=O)c2ccc(Cl)cc2)[C@@H](OC(=O)c2ccc(Cl)cc2)[C@@H]1OC(=O)c1ccc(Cl)cc1 | < 5 µM | 4.5% | – | –
CCCCC(=O)O[C@H]1[C@H](OC(=O)CCCC)[C@@H](CO)O[C@H]1n1cnc2c(OC)ncnc21 | 694 µM (≈ 313 µg/mL) | 9.1% | 7.02 days | –
COc1ncnc2c1ncn2[C@@H]1O[C@H](COC(=O)c2ccccc2)C(OC(=O)c2ccccc2)[C@@H]1O (single isomer, unassigned) | 33 µM (≈ 16.2 µg/mL) | 4.3% | – | –
COc1ccc(C(=O)OC[C@H]2O[C@@H](n3cnc4c(OC)ncnc43)[C@@H](O)C2OC(=O)c2ccc(OC)cc2)cc1 (single isomer, unassigned) | 45 µM (≈ 24.8 µg/mL) | 0.2% | – | –
